Laboratory results reported in PMC12518693, “Potent Fluorescent Probe for Target‐Engagement Studies of Allosteric Pyruvate Kinase Modulators” (Angewandte Chemie (International Ed. in English), 2025).
Marks after values point to notes of the source that are not given here.

What was measured:
[1] = target: T1, PKL (Homo sapiens, UniProt P30613); assay: Surface plasmon resonance, PKL; conditions: for koff: read-out: k off SPR (PKL); for kon: read-out: k on SPR (PKL)
Method: The surface was washed with 10 mM NaOH, 1M NaCl followed by immobilization of protein before subsequent deactivation by 1 M ethanolamine. Immobilization levels were typically 12000-16000 RU. The reference spot was treated as described, omitting the injection of PKL. Compound concentration series was injected over the immobilized protein in increasing concentrations using multi cycle (MCK) or single cycle kinetics (SCK) in running buffer (10 mM HEPES, 150 mM NaCl, 0.05% Tween20, 0.3% DMSO, pH 7.4). A 1:1 Langmuir interaction model is fitted to the experimental traces, enabling determination of kon, koff and Kd.

[2] = target: PKLNluc (Homo sapiens, UniProt P30613); assay: Live-cell NanoBRET assay in HEK293 cells; format: cell-based; parameters: host or cells: HEK293, transient transfection; conditions: 20 nM tracer IV
Chain of PKLNluc (P30613 1-543 isoform P30613-2): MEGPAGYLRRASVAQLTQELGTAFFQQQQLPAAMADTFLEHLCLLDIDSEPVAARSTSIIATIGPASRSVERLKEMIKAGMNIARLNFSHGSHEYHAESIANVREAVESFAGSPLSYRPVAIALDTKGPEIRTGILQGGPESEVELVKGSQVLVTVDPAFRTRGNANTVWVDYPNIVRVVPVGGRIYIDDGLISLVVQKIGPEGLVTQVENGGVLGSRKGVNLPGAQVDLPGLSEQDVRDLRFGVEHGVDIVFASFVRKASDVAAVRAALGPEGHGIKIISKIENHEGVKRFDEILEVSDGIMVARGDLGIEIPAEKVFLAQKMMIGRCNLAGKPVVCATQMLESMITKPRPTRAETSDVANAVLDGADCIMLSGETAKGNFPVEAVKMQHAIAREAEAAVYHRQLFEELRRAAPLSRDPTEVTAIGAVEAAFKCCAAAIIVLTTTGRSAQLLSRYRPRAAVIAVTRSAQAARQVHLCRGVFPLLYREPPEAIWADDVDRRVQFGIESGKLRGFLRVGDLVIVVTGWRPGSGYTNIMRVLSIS
Method: To investigate the intracellular interaction of tracer IV with PKLNluc, we prepared a mammalian expression construct, fusing Nluc to the N‐terminus of PKL. […] As a negative control for NanoBRET experiments, a construct expressing Nluc alone (without PKL) was also prepared.
Additionally, cell viability assays were conducted on cells transfected with either PKLNluc or Nluc plasmids and incubated with tracer IV (Figure S4b,c).
HEK293 cells were passed one day before transfection. The concentration of cells was adjusted to 2x10^5 cells/ml in Opti-MEM™ without phenol red (Invitrogen) supplemented with 1% FBS (Hyclone). Cells (4x10^6) were reversed transfected with 1 µg of PKLNluc plasmid or 1 µg Nluc plasmid and 9 µg of carrier DNA (Promega) using 30 µL of Fugene HD transfection reagent (Promega). […] Work solutions (100x) of tracer IV were prepared from DMSO stocks and further diluted to 20x concentrations with Tracer buffer (Promega). Twenty-five hours after transfection, the cells were treated with 5 µL/well of each of 20x concentrations of the tracer (final concentrations in the assay were in the range 0.001-1 µM, depending on the experiment). Thereafter, 10 µL of 10x solutions of competitors (diluted in Opti-MEM™ medium from stocks of 100x prepared in DMSO) were added to some sets of cells, while the other set received only Opti-MEM™ containing 1% DMSO. The cells were incubated for 2 h at 37°C (5% CO2). […] For each sample well, BRET ratios were calculated using the following formula:
BRET ratio mBU= AcceptorSDonorS-AcceptorNTDonorNT
Where AcceptorS is the luminescence intensity of the sample well at 550 nm, DonorS is the luminescence of the sample well at 450 nm, and AcceptorNT and DonorNT are the luminescence of the no-tracer control at 550 nm and 450 nm respectively.

[3] = target: PKLwt (Homo sapiens, UniProt P30613); assay: Fluorescence indicator displacement (FID) competition assay
Chain of PKLwt (P30613 1-543 isoform P30613-2): as above
Method: Additionally, we performed fluorescence competition assays with these competitors against IV, using recombinant PKLwt (Figure 6b). […] A combined 2x PKL-tracer IV solution was prepared in Tris-HCl buffer containing 1% DMSO, with final concentrations of 0.2 µM PKL and 0.1 µM tracer IV.

[4] = Solubility; format: physicochemical
[5] = target: T2, PKM2 (Homo sapiens, UniProt P14618); assay: Recombinant PKM2 activity assay (Kinase-Glo MAX); format: biochemical; parameters: made in house; conditions: for PKM2 E max: recombinant PKM2; for EC50: recombinant PKM2 10 nM, 15 min pre-incubation, PEP 0.1 mM, ADP 0.2 mM
T2 sequence (P14618 whole entry): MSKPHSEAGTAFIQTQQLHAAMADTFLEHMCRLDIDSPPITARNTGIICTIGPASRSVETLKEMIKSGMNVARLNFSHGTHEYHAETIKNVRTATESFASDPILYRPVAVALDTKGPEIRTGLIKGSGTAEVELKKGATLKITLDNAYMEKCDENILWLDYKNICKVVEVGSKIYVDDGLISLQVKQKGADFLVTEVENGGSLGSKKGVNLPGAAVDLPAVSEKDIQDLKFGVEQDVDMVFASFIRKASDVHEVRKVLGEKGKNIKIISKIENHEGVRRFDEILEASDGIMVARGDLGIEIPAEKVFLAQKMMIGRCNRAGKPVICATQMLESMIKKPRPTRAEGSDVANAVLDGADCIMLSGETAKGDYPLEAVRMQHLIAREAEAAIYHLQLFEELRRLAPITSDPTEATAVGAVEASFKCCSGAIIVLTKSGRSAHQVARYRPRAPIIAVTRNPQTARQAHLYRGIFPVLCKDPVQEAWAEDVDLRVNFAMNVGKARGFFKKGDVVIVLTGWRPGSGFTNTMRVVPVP
Method: As these compounds were binding to a known allosteric site on PK, the effects of ligands I–IV on the enzymatic activities of PKL and PKM2 were determined (Figure S2). The two isozymes were incubated with increasing concentrations of compounds before the addition of substrates PEP and adenosine diphosphate (ADP), and the reactions were monitored using a Kinase‐Glo MAX assay.
(§1) Figure S2. Effects of ligands I-IV on recombinant PK activities. PKL or PKM2 (10 nM) were pre-incubated with the compounds (0-100 µM) for 15 min following the addition of PEP (0.1 mM) and ADP (0.2 mM). The reactions were terminated by the addition of Kinase Glo-MAX reagent after 10 min, and the luminescence from each reaction was quantified using a plate reader. The activity values are expressed as a percentage of PK activity of the DMSO control. The potencies were calculated by best fit of the Hill equation to the luminescence data.^[2] (A) PKL titrations. (B) PKM2 titrations. Error bars represent the ±SE of replicates (n = 3).

[6] = target: T2, PKM2; assay: Surface plasmon resonance, PKM2; conditions: for K D (SPR, PKM2): 20 °C
[7] = target: T1, PKL; assay: Recombinant PKL activity assay (Kinase-Glo MAX); format: biochemical; parameters: co-crystallisation of full-length PKL (including the B-domain); 8xHis (TEV-cleavable) (N, cleaved yes); made in house; host or cells: E. coli T7 Express (NEB), pExp-NHis plasmid; conditions: for EC50: recombinant PKL 10 nM, 15 min pre-incubation, PEP 0.1 mM, ADP 0.2 mM; for PKL E max: recombinant PKL, above 100% activation, below 100% inhibition
Method: The two isozymes were incubated with increasing concentrations of compounds before the addition of substrates PEP and adenosine diphosphate (ADP), and the reactions were monitored using a Kinase‐Glo MAX assay.
as §1, with “Effects of ligands I-IV on recombinant PK activities. PKL or PKM2 (10 nM) were pre-incubated with the compounds (0-100 µM) for 15 min following the addition of PEP (0.1 mM) and ADP (0.2 mM).” left out
The reaction mixture contained 0.2 mM ADP, 0.1 mM PEP, 5 nM PKL, 1% DMSO, and test compounds at concentrations ranging from 0 to 1 mM across 12 titration points. Prior to substrate addition, PKL and test compounds were pre-incubated for 15 minutes.
After the reaction, 5 µL of Kinase-Glo Max reagent was added to each well. […] For each data set, luminescence from the DMSO control was set as 100% activity, and luminescence from the protein blank (no PKL) as 0% activity. Percentage activity (E%) was calculated using the equation: […]
Titration data was fitted to the Hill equation in Origin to determine EC₅₀ values.

[8] = target: T1, PKL; assay: HepG2 PKM2 KO cell lysate PKL activity assay; conditions: HepG2 PKM2 KO cells, 48 h, mean ± SE n=3
Method: These predominantly express PKL.
HepG2 PKM2 KO cells (Synthego) were plated in 6 well plates at cell densities of 2 x 10^5 cells/well and incubated for 24 h at 37 °C and 5% CO2. Compounds were added to the cells in different concentrations (0.1, 1, 10 µM) and the cells were further incubated for 48 h. The control cells received DMSO as vehicle.
Cells were washed with PBS, lysed on ice with 200 µL/well PK assay buffer. […] Pyruvate kinase (PK) activity of the cell lysates (10 µg total protein) was analyzed by using the PK assay kit from abcam (ab83432) according to manufacturer´s instructions. The PKL activity in the cell lysates treated with the compounds was expressed as a percentage of the PK activity in the vehicle.

[9] = K D SPR (PKL), 20 °C, mean ± SE n=3

T1 sequence (P30613 1-543 isoform P30613-2): as the sequence (P30613 1-543 isoform P30613-2) above

SMILES | solubility [4] | PKM2 E max [5] | EC50 [5] | Kd [1, 9] | Kd [6] | K D (SPR, PKM2) [6] | EC50 [7] | PKL E max [7] | koff [1] | kon [1] | PKL activities (% of vehicle) 0.1 µM [8] | PKL activities (% of vehicle) 1 µM [8] | PKL activities (% of vehicle) 10 µM [8] | also measured
Nc1cccc(S(=O)(=O)N2CCCN(S(=O)(=O)c3ccc4c(c3)OCCO4)CC2)c1 [DASA-58, reference compound] |  |  |  |  |  |  |  |  |  |  |  |  |  | Kd ([1]; K D (SPR, PKL), 20 °C, recombinant PKL): 0.17 µM; EC50 ([2]; 2 h 37 °C, live HEK293, Figure 6a, read-out: EC50 displacement of tracer IV): 0.512 µM; Kd ([2]; Figure 6, read-out: K D (cell), Cheng–Prusoff corrected): 0.245 µM; EC50 [3]: 0.394 µM; Kd [3]: 0.179 µM
CN(C)c1ccc(S(=O)(=O)c2ccc3c(=O)n(CC(C)(C)C)ncc3c2)c2nonc12 [Compound III, 6-((7-(Dimethylamino)benzo[c][1,2,5]oxadiazol-4-yl)sulfonyl)-2-neopentylphthalazin-1(2H)-one] | poor | 323 % of vehicle | > 10 µM | > 100 µM | > 100 µM | no detectable binding | 86 µM | 50 ^a) % vehicle |  |  |  |  |  | K D SPR (PKL) ([1]; 20 °C, mean ± SE n=3): no binding; effect on PKL at higher concentrations ([7]; >50 µM): weak inhibition
CN(C)c1ccc(S(=O)(=O)c2ccc3c(=O)n(Cc4ccccc4)ncc3c2)c2nonc12 [Compound II, 2-Benzyl-6-((7-(dimethylamino)benzo[c][1,2,5]oxadiazol-4-yl)sulfonyl)phthalazin-1(2H)-one] | poor | 572 % of vehicle |  | 36.2 ± 0.289 µM | > 100 µM | no detectable binding | 0.7 µM | 120 % vehicle | 0.00833 s⁻¹ | 167 M⁻¹ s⁻¹ | 112 ± 1 % of vehicle | 126 ± 1 % of vehicle | 133 ± 6 % of vehicle | weaker PKL affinity relative to compound I ([1]; SPR K D ratio): 250 fold
O=c1c2ccc(S(=O)(=O)c3ccccc3)cc2cnn1Cc1ccccc1 [Compound I, 2-Benzyl-6-(phenylsulfonyl)phthalazin-1(2H)-one, reference compound] |  | 596 % of vehicle | 0.025 µM | 0.133 ± 0.008 µM | 0.033 ± 0.001 µM |  | 0.015 µM | 162 % vehicle | 0.00533 s⁻¹ | 41200 M⁻¹ s⁻¹ | 115 ± 2 % of vehicle | 189 ± 3 % of vehicle | 330 ± 3 % of vehicle | koff ([6]; read-out: k off SPR (PKM2)): < 0.00055 s⁻¹; kon ([6]; read-out: k on SPR (PKM2)): 4500 M⁻¹ s⁻¹
